A short description of this data set: Plasma hPTH (1-34) in pigs as a function of patch application time (Example 14). The class given is in vivo. The conditions noted are these: male, large white, pig; for Cmax: read-out: Cmax AVG ± SD; for F rel: topical or ocular, compared to SC, read-out: % BIO AVG ± SD. The method, then:
A printed patch containing 90 μg of hPTH (1-34) was placed over the application area and covered with Tegaderm. The patch was removed 1 hour, 1.5 hours, 2 hours or 8 hours after application, and the skin site was gently wiped to remove residual peptide. As a control group, pigs were injected s.c. with 0.2 ml FORTEO® (hPTH (1-34) purchased from Ely Lilly, Indianapolis, Ind., USA; 250 μg/ml) diluted to 100 μg/ml in the dorsal neck area (final dose was 20 μg per animal). Formulation: hPTH (1-34) (10 mg/ml): Trehalose (110 mg/ml) in 50 mM acetic acid, pH=4.
To determine the amount of hPTH(1-34) delivered to the blood of the treated pigs, blood samples were withdrawn at the indicated time points and the amount of hPTH(1-34) was measured by an ELISA kit (Immutopics, San-Clemente, Calif.).

Read-outs that look alike come from different tables or passages of the source.

We go through one compound from patent publication US7662404B2, “Transdermal delivery system for dried particulate or lyophilized peptides and polypeptides” (TransPharma Medical Ltd., priority 2002, dated 2010).

Usually Cmax stands for the maximum level reached in the sampled fluid or tissue. One may read the AUC as concentration integrated over time.

For the compound `CC[C@H](C)[C@H](NC(=O)[C@H](CCC(=O)O)NC(=O)[C@H](CO)NC(=O)[C@@H](NC(=O)[C@@H](N)CO)C(C)C)C(=O)N[C@@H](CCC(N)=O)C(=O)N[C@@H](CC(C)C)C(=O)N[C@@H](CCSC)C(=O)N[C@@H](Cc1cnc[nH]1)C(=O)N[C@@H](CC(N)=O)C(=O)N[C@@H](CC(C)C)C(=O)NCC(=O)N[C@@H](CCCCN)C(=O)N[C@@H](Cc1cnc[nH]1)C(=O)N[C@@H](CC(C)C)C(=O)N[C@@H](CC(N)=O)C(=O)N[C@@H](CO)C(=O)N[C@@H](CCSC)C(=O)N[C@@H](CCC(=O)O)C(=O)N[C@@H](CCCN=C(N)N)C(=O)N[C@H](C(=O)N[C@@H](CCC(=O)O)C(=O)N[C@@H](Cc1c[nH]c2ccccc12)C(=O)N[C@@H](CC(C)C)C(=O)N[C@@H](CCCN=C(N)N)C(=O)N[C@@H](CCCCN)C(=O)N[C@@H](CCCCN)C(=O)N[C@@H](CC(C)C)C(=O)N[C@@H](CCC(N)=O)C(=O)N[C@@H](CC(=O)O)C(=O)N[C@H](C(=O)N[C@@H](Cc1cnc[nH]1)C(=O)N[C@@H](CC(N)=O)C(=O)N[C@@H](Cc1ccccc1)C(=O)O)C(C)C)C(C)C` [hPTH (1-34)], the Cmax is, setting by setting: (90 ug, TD 90 ug printed patch, removed after 1 h) 0.0772 ± 0.0358 ng/mL; (90 ug, TD 90 ug printed patch, removed after 1.5 h) 0.179 ± 0.0658 ng/mL; (90 ug, TD 90 ug printed patch, removed after 2 h) 0.137 ± 0.0431 ng/mL; (90 ug, TD 90 ug printed patch, removed after 8 h) 0.128 ± 0.0524 ng/mL; (sc, 20 ug, SC 20 ug) 0.289 ± 0.0525 ng/mL. The compound further yielded an AUC (90 ug, TD 90 ug, 1 h) of 0.232 ± 0.0418 ng·h/mL; an AUC (90 ug, TD 90 ug, 1.5 h) of 0.296 ± 0.0716 ng·h/mL; an AUC (90 ug, TD 90 ug, 2 h) of 0.272 ± 0.0545 ng·h/mL; an AUC (90 ug, TD 90 ug, 8 h) of 0.331 ng·h/mL; an AUC (sc, 20 ug, SC 20 ug) of 0.237 ± 0.0273 ng·h/mL. For the same compound, the F rel (90 ug, TD 90 ug, 1 h) amounted to 22.4 ± 6.97%; the F rel (90 ug, TD 90 ug, 1.5 h) was 28.5 ± 9.36%; the F rel (90 ug, TD 90 ug, 2 h) is 26.2 ± 8.42%; the F rel (90 ug, TD 90 ug, 8 h) turned out to be 31.6 ± 9.03%.
